# Source: paper PMC10999543, “Identification of kinase modulators as host-directed therapeutics against intracellular methicillin-resistant Staphylococcus aureus” (Frontiers in Cellular and Infection Microbiology, 2024)
# Read-outs that look alike come from different tables or passages of the source.
# Key:
# HeLa cells = assay: Compound screen by flow cytometry: HeLa cell count as surrogate readout of cell viability (z-scoreHeLa); type: cell-based, human; details: for cell count rep 1 / z-scoreHeLa rep 1: replicate 1; for cell count rep 2 / z-scoreHeLa rep 2: replicate 2; for cell count rep 3 / z-scoreHeLa rep 3: replicate 3; for z-scoreHeLa mean: mean of 3 replicates
# Method: (§1) The cells were resuspended in cell culture medium without antibiotics, seeded with 10,000 cells/well into Costar flat-bottom 96-well plates (Corning, Amsterdam, the Netherlands), and were incubated overnight at 37°C/5% CO2. The next day, the bacteria were centrifuged at ≥1800 g for 15 min and resuspended in cold PBS + 5 mM ethylenediaminetetraacetic acid (EDTA). The number of CFUs present in the bacterial suspension was estimated from the optical density at 600 nm (OD600) by assuming 8x10^8 CFUs to be present in a bacterial suspension with OD600 = 1, based on prior titrations. The bacterial suspension was diluted in cell culture medium without antibiotics and added to the cells. Accuracy of the multiplicity of infection (MOI) was validated by plating serial dilutions of the MRSA inoculums on Difco TS agar plates (BD Biosciences). The calculated mean MOI throughout all experiments was 6.8 ± 4.6 (mean ± SD). Infected cells were centrifuged for 3 min at 150 g and incubated for 1 hour at 37°C/5% CO2. Next, the cells were incubated with fresh cell culture medium supplemented with 30 µg/ml gentamicin sulphate (Lonza BioWhittaker, Basel, Switzerland) for 15 min at 37°C/5% CO2 to kill residual extracellular bacteria. Infected cells were incubated overnight at 37°C/5% CO2 in cell culture medium in the presence of kinase inhibitors and 5 µg/ml gentamicin sulphate-containing medium to prevent the growth of extracellular bacteria. The solvent of the compounds, DMSO, was used at equal % v/v as a negative control. For the screen, each compound was tested in triplicate, on separate cell culture plates, resulting in triplicate values for each kinase inhibitor.
# (§2) HeLa cells were harvested by trypsinization and fixed with 1% paraformaldehyde. Samples were measured on a FACSLyric with HTS extension (BD Biosciences). Flow cytometry data were analysed using FlowJo version 10 (TreeStar, Ashland, OR, USA). HeLa cells positive for GFP were gated to calculate the percentage of MRSA-infected cells. The cell count was used as surrogate readout of cell viability.
# To minimize the possibility that the presence of extreme values on a plate affected the z-scores, raw values that deviated two-fold from the negative controls were excluded when calculating plate means and standard deviations as used in the aforementioned formula. Compounds were considered a “hit” when z-scoreMRSA+ ≤ -2 and z-scoreHeLa ≥ -3 for cell count. In cases where compounds were screened twice, the average values were used to select hit compounds.
# intracellular MRSA = type: cell-based, Staphylococcus aureus; details: for %GFP+ rep 1 / z-scoreMRSA+ rep 1: replicate 1; for %GFP+ rep 2 / z-scoreMRSA+ rep 2: replicate 2; for %GFP+ rep 3 / z-scoreMRSA+ rep 3: replicate 3; for z-scoreMRSA+ mean: mean of 3 replicates
# Method: as §1, §2
# To identify potential “hit” compounds, the flow cytometry data were used to calculate standard z-scores using z = (x-μ)/σ – zneg, where x is total event count or the percent of GFP-positive cells from a single well, μ is the mean from wells of the plate, σ is the standard deviation of the plate and zneg is the mean z-score of the negative control of the plate (i.e., DMSO) ([Korbee et al., 2018]). To minimize the possibility that the presence of extreme values on a plate affected the z-scores, raw values that deviated two-fold from the negative controls were excluded when calculating plate means and standard deviations as used in the aforementioned formula. Compounds were considered a “hit” when z-scoreMRSA+ ≤ -2 and z-scoreHeLa ≥ -3 for cell count. In cases where compounds were screened twice, the average values were used to select hit compounds.
# [1] = PKIS compound screen raw data, HeLa cell count
# [2] = PKIS compound screen, HeLa cell count
# [3] = PKIS compound screen, Yes/No call
# [4] = PKIS compound screen, Yes/No call on z-scoreHeLa
# [5] = PKIS compounds raw data, HeLa cell count
# [6] = PKIS compound screen raw data, MRSA-infected HeLa cells
# [7] = PKIS compound screen, MRSA-infected HeLa cells
# [8] = PKIS compound screen, Yes/No call (effect without cell death)
# [9] = PKIS compound screen, Yes/No call on z-scoreMRSA+
# [10] = PKIS compounds raw data, MRSA-infected HeLa cells
# [11] = compound screen, HeLa cell count
# [12] = Yes/No: effect without cell death
# [13] = compound screen, MRSA-infected HeLa cells
SMILES,cell count rep 1 (HeLa cells; [1]),cell count rep 2 (HeLa cells; [1]),cell count rep 3 (HeLa cells; [1]),z-scoreHeLa mean (HeLa cells; [2]),z-scoreHeLa rep 1 (HeLa cells; [2]),z-scoreHeLa rep 2 (HeLa cells; [2]),z-scoreHeLa rep 3 (HeLa cells; [2]),cell death (HeLa cells; [4]),cell count rep 1 (HeLa cells; [5]),cell count rep 2 (HeLa cells; [5]),cell count rep 3 (HeLa cells; [5]),%GFP+ rep 1 (intracellular MRSA; [6]),%GFP+ rep 2 (intracellular MRSA; [6]),%GFP+ rep 3 (intracellular MRSA; [6]),z-scoreMRSA+ mean (intracellular MRSA; [7]),z-scoreMRSA+ rep 1 (intracellular MRSA; [7]),z-scoreMRSA+ rep 2 (intracellular MRSA; [7]),z-scoreMRSA+ rep 3 (intracellular MRSA; [7]),hit (intracellular MRSA; [8]),effect (intracellular MRSA; [9]),further results
Nc1ncc(-c2cccnc2)c2scc(-c3ccc4c(c3)CCN4C(=O)Cc3ccccc3)c12 [GSK683281A],22126,22399,35639,-0.93,0.30,-2.31,-0.78,No,6640,6026,5637,18.3%,19.8%,19.8%,0.18,0.14,0.38,0.00377,No,No,cell death (HeLa cells; [3]): No; z-scoreHeLa mean (HeLa cells; PKIS compound screen): 0.13; z-scoreHeLa rep 1 (HeLa cells; PKIS compound screen): 0.36; z-scoreHeLa rep 2 (HeLa cells; PKIS compound screen): 0.0122; z-scoreHeLa rep 3 (HeLa cells; PKIS compound screen): 0.0253; effect (intracellular MRSA; [3]): No; z-scoreMRSA+ mean (intracellular MRSA; PKIS compound screen): 0.38; z-scoreMRSA+ rep 1 (intracellular MRSA; PKIS compound screen): 0.20; z-scoreMRSA+ rep 2 (intracellular MRSA; PKIS compound screen): 0.70; z-scoreMRSA+ rep 3 (intracellular MRSA; PKIS compound screen): 0.25; %GFP+ rep 1 (intracellular MRSA; [10]): 28.1%; %GFP+ rep 2 (intracellular MRSA; [10]): 29.7%; %GFP+ rep 3 (intracellular MRSA; [10]): 28.6%
CCn1cc(-c2ccnc3[nH]ccc23)c(-c2cccc(NC(=O)Nc3ccc(OCc4ccccc4)cc3)c2)n1 [GSK718429A],–,–,–,–,–,–,–,–,2721,2140,4945,–,–,–,–,–,–,–,–,–,cell death (HeLa cells; Yes/No call from z-scoreHeLa): No; z-scoreHeLa mean (HeLa cells; [11]): -1.48; z-scoreHeLa rep 1 (HeLa cells; [11]): -1.86; z-scoreHeLa rep 2 (HeLa cells; [11]): -1.61; z-scoreHeLa rep 3 (HeLa cells; [11]): -0.96; %GFP+ rep 1 (intracellular MRSA; [10]): 12.6%; %GFP+ rep 2 (intracellular MRSA; [10]): 13.0%; %GFP+ rep 3 (intracellular MRSA; [10]): 13.2%; effect (intracellular MRSA; Yes/No call from z-scoreMRSA+): No; hit (intracellular MRSA; [12]): No; z-scoreMRSA+ mean (intracellular MRSA; [13]): -0.38; z-scoreMRSA+ rep 1 (intracellular MRSA; [13]): -0.18; z-scoreMRSA+ rep 2 (intracellular MRSA; [13]): -0.17; z-scoreMRSA+ rep 3 (intracellular MRSA; [13]): -0.79
CCn1c(-c2nonc2N)nc2c(C#CC(C)(C)O)nc(OC[C@@H](N)c3ccccc3)cc21 [GSK938890A],14299,35410,42196,-0.17,-0.88,0.12,0.27,No,–,–,–,12.8%,14.8%,15.1%,-1.38,-1.60,-1.12,-1.43,No,No,–
CCn1c(-c2nonc2N)nc2c(C#CC(C)(C)O)nc(OC[C@H](N)c3ccccc3)cc21 [GSK943949A],779,847,431,–,–,–,–,–,–,–,–,19.2%,16.3%,15.7%,–,–,–,–,–,–,cell death (HeLa cells; Yes/No call from z-scoreHeLa): No; z-scoreHeLa mean (HeLa cells; [11]): -2.76; z-scoreHeLa rep 1 (HeLa cells; [11]): -2.58; z-scoreHeLa rep 2 (HeLa cells; [11]): -2.66; z-scoreHeLa rep 3 (HeLa cells; [11]): -3.04; effect (intracellular MRSA; Yes/No call from z-scoreMRSA+): No; hit (intracellular MRSA; [12]): No; z-scoreMRSA+ mean (intracellular MRSA; [13]): -1.63; z-scoreMRSA+ rep 1 (intracellular MRSA; [13]): -1.42; z-scoreMRSA+ rep 2 (intracellular MRSA; [13]): -1.53; z-scoreMRSA+ rep 3 (intracellular MRSA; [13]): -1.95
CCn1c(-c2nonc2N)nc2c(C#CC(C)(C)O)nc(OCCNC)cc21 [GSK949675A],–,–,–,–,–,–,–,–,4918,5879,10520,–,–,–,–,–,–,–,No,–,cell death (HeLa cells; [3]): No; z-scoreHeLa mean (HeLa cells; PKIS compound screen): 1.02; z-scoreHeLa rep 1 (HeLa cells; PKIS compound screen): 0.13; z-scoreHeLa rep 2 (HeLa cells; PKIS compound screen): 1.22; z-scoreHeLa rep 3 (HeLa cells; PKIS compound screen): 1.70; effect (intracellular MRSA; [3]): No; z-scoreMRSA+ mean (intracellular MRSA; PKIS compound screen): 0.28; z-scoreMRSA+ rep 1 (intracellular MRSA; PKIS compound screen): 0.59; z-scoreMRSA+ rep 2 (intracellular MRSA; PKIS compound screen): 0.84; z-scoreMRSA+ rep 3 (intracellular MRSA; PKIS compound screen): -0.59; %GFP+ rep 1 (intracellular MRSA; [10]): 15.0%; %GFP+ rep 2 (intracellular MRSA; [10]): 16.0%; %GFP+ rep 3 (intracellular MRSA; [10]): 13.9%
NS(=O)(=O)c1cccc(-c2cc3ccncc3cc2OCc2ccccc2)c1 [GSK980961A],14876,28602,41262,-0.61,-0.80,-1.15,0.12,No,–,–,–,13.7%,14.8%,15.5%,-1.25,-1.32,-1.12,-1.31,No,No,–
COc1cc2ncn(-c3cc(OCc4ccccc4C(F)(F)F)c(C(=O)N(C)C)s3)c2cc1OC [GSK1030062A],10049,31389,32107,-1.17,-1.53,-0.63,-1.34,No,–,–,–,17.3%,19.4%,19.3%,-0.02,-0.18,0.26,-0.15,No,No,–
c1ccc(-c2cc3ccncc3cc2OC2CCNCC2)cc1 [GSK1122999D],28278,18056,22119,-0.31,-0.33,-1.24,0.62,No,8742,6353,6306,16.9%,18.4%,20.9%,-0.29,-0.50,-0.28,-0.09,No,No,cell death (HeLa cells; [3]): No; z-scoreHeLa mean (HeLa cells; PKIS compound screen): 0.77; z-scoreHeLa rep 1 (HeLa cells; PKIS compound screen): 1.62; z-scoreHeLa rep 2 (HeLa cells; PKIS compound screen): 0.23; z-scoreHeLa rep 3 (HeLa cells; PKIS compound screen): 0.45; effect (intracellular MRSA; [3]): No; z-scoreMRSA+ mean (intracellular MRSA; PKIS compound screen): 0.55; z-scoreMRSA+ rep 1 (intracellular MRSA; PKIS compound screen): 0.42; z-scoreMRSA+ rep 2 (intracellular MRSA; PKIS compound screen): 0.40; z-scoreMRSA+ rep 3 (intracellular MRSA; PKIS compound screen): 0.84; %GFP+ rep 1 (intracellular MRSA; [10]): 29.2%; %GFP+ rep 2 (intracellular MRSA; [10]): 28.1%; %GFP+ rep 3 (intracellular MRSA; [10]): 31.8%
